# Experimental data as given in patent US9540649B2, “Method for opening tight junctions” (The Provost, Fellows and Scholars of the College of the …, priority 2007, dated 2017).
# Entries after “also recorded” stand apart in the source; their conditions may differ.
# Tests used:
# claudin-5 = test: Western blot analysis of claudin-5 expression in brain after hydrodynamic tail vein delivery of siRNA; type: in vivo, C57/Bl6 mice
# Procedure: (§1) Rapid high pressure, high volume tail vein injections were carried out (Kiang et al., 2005). Wild type C57/Bl6 mice of weight 20-30 g were individually restrained inside a 60-ml volume plastic tube. The protruding tail was warmed for 5 minutes prior to injection under a 60-W lamp and the tail vein clearly visualized by illumination from below. 20 micrograms of targeting siRNA, or non-targeting siRNA made up with PBS to a volume in mls of 10% of the body weight in grams or PBS alone, was injected into the tail vein at a rate of 1 ml/sec using a 26-gauge (26 G 3/8) needle. After 24, 48, 72 hours and 1 week, protein was isolated from total brain tissue by crushing brains to a fine powder in liquid N2 and subsequently using lysis buffer containing 62.5 mM Tris, 2% SDS, 10 mM Dithiothreitol, 10 μl protease inhibitor cocktail/100 ml (Sigma Aldrich, Ireland). The homogenate was centrifuged at 10,000 g for 20 mins @4° C., and the supernatant was removed for claudin-5 analysis.
# Briefly, protein samples were separated on 12% SDS-PAGE gels and transferred to nitrocellulose membrane overnight using a wet electroblot apparatus. Efficiency of protein transfer was determined using Ponceau-S solution (Sigma Aldrich, Ireland). Non-specific binding sites were blocked by incubating the membrane at room temperature with 5% non-fat dry skimmed milk in Tris-buffered saline (TBS) (0.05 M Tris, 150 mM NaCl, pH 7.5) for 2 hours. Membranes were briefly washed with TBS, and incubated with polyclonal rabbit anti-claudin-5 (Zymed Laboratories, San Francisco, Calif.) (1:500) or polyclonal rabbit anti-β-actin (Abcam, Cambridge, UK) (1:1000). Antibodies were incubated with membranes overnight at 4° C. Membranes were washed with TBS, and incubated with a secondary anti-rabbit (IgG) antibody with Horse-Radish-Peroxidase (HRP) conjugates (1:2500), for 3 hours at room temperature. Immune complexes were detected using enhanced chemiluminescence (ECL).
# [1] = system: endothelial cells of heart, liver, lung and kidney; test: Endothelial cell morphology of major organs (Griffonia simplicifolia-isolectin B4 staining); type: in vivo, mouse; details: all time points; vs control groups
# Procedure: Following hydrodynamic injection of siRNA targeting claudin-5, cryosections were prepared of all the major organs, the heart, liver, lung and kidney. Sections were incubated overnight at 4° C. with HRP-conjugated Griffonia simplicifolia-isolectin B4 in order to stain the endothelial cells of organs.
# BBB = BBB permeability to Hoechst H33342 (562 Da) and FD-4 (4,400 Da) co-perfusion, brain sections; type: in vivo, C57/Bl6 mice; details: for extravasation of FD-4 (4,400 Da) into brain parenchyma: any time point following siRNA injection
# Procedure: In order to determine the permeability of brain and retinal microvessels to a molecule of 562 Daltons, mice were perfused through the left ventricle with 500 μl/g body weight of PBS containing 100 μg/ml Hoechst stain H33342 (Sigma Aldrich, Ireland) and 1 mg/ml FITC-Dextran-4 (FD-4) 24, 48, 72 hours and 1 week post-hydrodynamic delivery of claudin-5 siRNA. Following perfusion, the whole brain was dissected and placed in 4% PFA pH 7.4 overnight at 4° C. and subsequently washed 4×15 mins with PBS. Brains were then embedded in 4% agarose and 50 μm sections were cut using a Vibratome®. Whole eyes were removed and fixed with 4% PFA, and following washing with PBS and cryoprotection using a sucrose gradient, 12 μm cryosections were cut using a cryostat. Following analysis of retinal cryosections with an Olympus FluoView™ FV1000 Confocal microscope, images were oriented correctly using Adobe® Photoshop®.
# claudin-5 mRNA = test: Real-time RT-PCR analysis of claudin-5 mRNA in brain post-injection of siRNA; type: in vivo, C57/Bl6 mice
# Procedure: as §1
# At the same time points post-delivery of siRNA total RNA was isolated from brains using Trizol (Invitrogen). RNA was then treated with RNase-free DNase (Promega, Madison, Wis., USA) and then chloroform extracted, isopropanol precipitated, washed with 75% RNA grade ethanol and resuspended in 100 μl RNase-free water.
# RNA was analyzed by real-time RT-PCR using a Quantitect Sybr Green Kit as outlined by the manufacturer (Qiagen-Xeragon) on a LightCycler (Roche Diagnostics, Lewes, UK) under the following conditions: 50° C. for 20 min; 95° C. for 15 min; 38 cycles of 94° C. for 15 s, 57° C. for 20 s, 72° C. for 10 s.
# cDNA fragments were amplified from claudin-5 and β-actin for each RNA sample a minimum of four times. Results were expressed as a percentage of those from the similarly standardized appropriate control experiment. The reciprocal values compared to the non-targeting control siRNA gave percentage suppression of claudin-5 expression. Mean values, standard deviations, and pooled t tests were calculated using GraphPad Prism©. Differences were deemed statistically significant at P<0.05.
substance,measurement,setting,value
"claudin-5 siRNA: siRNA, sense CGUUGGAAAUUCUGGGUCUUU (SEQ ID NO: 1), antisense AGACCCAGAAUUUCCAACGUU (SEQ ID NO: 2) (listed as RNA, chemistry not given here)","claudin-5 expression, Western blot, brain","claudin-5; 24 hours post delivery of 20 μg siRNA, vs un-injected, PBS and non-targeting siRNA controls",decrease in expression; also recorded: markedly decreased
same,"claudin-5 expression, Western blot, brain","claudin-5; 48 hours post delivery of 20 μg siRNA, vs controls",suppression was also evident
same,"claudin-5 expression, Western blot, brain","claudin-5; 48 hours post delivery of 20 μg siRNA, vs controls, listed as CLDN5 siRNA",significant decreases in Claudin-5 expression
same,"claudin-5 expression, Western blot, brain","claudin-5; 48 hours post delivery of 20 μg siRNA, vs controls, listed as siRNA targeting claudin-5",maximum suppression
same,"claudin-5 expression, Western blot, brain","claudin-5; 72 hours post delivery of 20 μg siRNA, vs controls, listed as CLDN5 siRNA",levels of expression appeared similar to those observed in the control groups
same,"time at which claudin-5 expression returns to normal, Western data",claudin-5; after injection,returning to normal between 72 hours and 1 week
same,"endothelial cell morphology in liver, lung, kidney and heart",[1],appeared similar at all time points and in all major organs
same,extravasation of Hoechst H33342 (562 Da) from brain microvessels,BBB; 24 hours and 48 hours post delivery,distinct staining of nuclei in surrounding neural and glial cells
same,extravasation of Hoechst H33342 (562 Da) from brain microvessels,"BBB; 24 hours and 48 hours post delivery, listed as siRNA targeting claudin-5",extravasation of Hoechsct was observed; also recorded: crossed the BBB
same,extravasation of Hoechst H33342 (562 Da) from brain microvessels,BBB; 72 hours or 1 week post-injection,not evident
same,"extravasation of FD-4 (4,400 Da) into brain parenchyma",BBB,No extravasation of FD-4
same,"extravasation of FD-4 (4,400 Da) into brain parenchyma",BBB; listed as siRNA targeting claudin-5,no extravasation was evident; also recorded: failed to do so
same,"claudin-5 mRNA level, RT-PCR, brain","claudin-5 mRNA; 1 week post-injection, vs non-targeting control",not significantly changed
same,claudin-5 mRNA levels suppressed with respect to the non-targeting control siRNA,claudin-5 mRNA; 24 hours post-injection,up to 95%
same,"claudin-5 mRNA level, RT-PCR, brain","claudin-5 mRNA; 24 hours post-injection, vs control groups",significantly decreased
same,"claudin-5 mRNA level, RT-PCR, brain","claudin-5 mRNA; 24 hours post-injection, vs control groups, listed as siRNA targeting claudin-5",significant decrease
same,"claudin-5 mRNA level, RT-PCR, brain","claudin-5 mRNA; 48 hours post-injection, vs control groups",showing suppression
same,"claudin-5 mRNA level, RT-PCR, brain","claudin-5 mRNA; 72 hours post-injection, vs non-targeting control",not significantly changed
